Measurements: patent US20260132103A1, “Bumetanide Derivatives for the Therapy of Stroke and Other Neurological Diseases/Disorders Involving NKCCs” (University of Pittsburgh - Of the Commonwealth System of …, priority 2018, published 2026)

Columns and labels:
Assay type in all cases: in vivo, mouse
[1] = test system: transient focal cerebral ischemia (tMCAO) in mice; experiment: Body weight and survival 1-14 days after tMCAO; conditions: for body weight changes: 1-14 days after tMCAO, versus DMSO Veh control; for mortality rate: between 1-14 days post tMCAO, BMT 10, STS5 13, STS66 12 mg/kg/day i.p.
Procedure: FIGS. 1A-1C: Efficacy of NKCC1 inhibitors in reducing ischemic infarction, cerebral edema, and the post-stroke survival in normotensive mice after tMCAO (see Example 3). (1A) Experimental protocol and data collection. Transient middle cerebral artery occlusion (tMCAO) was induced in normal C57/b6 mice. DMSO, BMT (10 mg/kg body weight), STS5 (13 mg/kg) or STS66 (12 mg/kg) was administered via intraperitoneal injection (i.p.) as described in method. (1 B) Representative TTC staining images in normotensive mice at 24 h reperfusion with quantitative analysis of infarct volume. Data are mean±SD, n=6-13 (male, n=3-9; female, n=3-4, *p<0.05). Scale: 5 mm. (1C) Percentage hemisphere swelling at 24 h reperfusion. Data are mean±SD, n=6-13, *p<0.05. (1D) Body weight change during 1-14 days after tMCAO. Data are mean±SD, n=5-9 (male, n=4; female, n=2, *p<0.05). (1E) Survival curve during 1-14 day after tMCAO. Data are mean±SD, n=5-9 (male, n=3-7; female, n=2, *p<0.05).
(§1) Transient focal cerebral ischemia was induced in mice by intraluminal occlusion of the left middle cerebral artery (MCA) for 50 min as described previously (Chen H et al., 2005). Mice were anesthetized with 3% isoflurane in 70%: 30% N2O/O2 until they were unresponsive to the tail pinch test. Animals were then fitted with a nose cone blowing 1.5% isoflurane for anesthesia maintenance. The left common carotid artery was exposed and the occipital artery branches of the external carotid artery were isolated and coagulated. The internal carotid artery was isolated and the extracranial branch was dissected and ligated. A rubber silicon-coated monofilament suture (6-0) was introduced into the internal carotid artery lumen and gently advanced approximately 8-9 mm to block the MCA blood flow for 50 min. The rectal temperature was maintained at 37.0±0.5° C. during surgery through a temperature-controlled heating pad. Achievement of ischemia was confirmed by monitoring regional cerebral blood flow (rCBF) with laser speckle contrast imager (Pericam). For reperfusion, the suture was withdrawn after the MCAO. The incision was closed and the mouse recovered under a heating lamp to maintain the core temperature (36.0-37.0° C.) during the 30-60 min recovery period. After recovery, animals were returned to their cages with free access to food and water.
(§2) Vehicle: DMSO (2 ml/kg body weight/day), the NKCC1 inhibitor bumetanide (BMT, 10 mg/kg body weight/day in DMSO), bumetanide's prodrug STS5 (13 mg/kg body weight/day in DMSO), or the novel NKCC1 inhibitor STS66 according to the invention (12 mg/kg body weight/day in DMSO) was administered via intraperitoneal injection (i.p). The initial half dose of the drugs (BMT, STS5, STS66) was given at 3 h after the onset of reperfusion and the second half dose at 8 h reperfusion in the tMCAO model.

[2] = test system: transient focal cerebral ischemia (tMCAO) in mice; experiment: Neurological score after tMCAO
Text: (§3) FIGS. 2A-2D: Efficacy of NKCC1 inhibitors on improving neurological function in mice after tMCAO (see Example 3). (A) Neurological score, (B) corner test, (C) foot-fault test, and (D)-(E) adhesive tape test during 1-14 day after tMCAO. Data are mean±SD, n=4-9. *p<0.05 for DMSO vs STS66, **p<0.05 for DMSO vs STS5, ***p<0.05 for DMSO vs BMT, #p<0.05 for BMT vs STS66, ###p<0.05 for STS5 vs STS66.
as §1, §2
Neurological deficit grading system was used to evaluate neurological deficit at 1, 2, 3, 5, 7, 10 and 14 days after tMCAO as described previously (Bederson J B et al,1986).

[3] = test system: transient focal cerebral ischemia (tMCAO) in mice; experiment: Corner test after tMCAO; conditions: 1-14 days after tMCAO
Text: as §3
Transient focal cerebral ischemia was induced in mice by intraluminal occlusion of the left middle cerebral artery (MCA) for 50 min as described previously (Chen H et al., 2005). Mice were anesthetized with 3% isoflurane in 70%: 30% N2O/O2 until they were unresponsive to the tail pinch test. Animals were then fitted with a nose cone blowing 1.5% isoflurane for anesthesia maintenance. The left common carotid artery was exposed and the occipital artery branches of the external carotid artery were isolated and coagulated. The internal carotid artery was isolated and the extracranial branch was dissected and ligated. […]
Neurological functional deficits in mice were determined by the corner test. […]
The numbers of left and right turns of each mouse during 10 trials were recorded, and turning movements that were not part of a rearing movement were not scored (Zhang L, et al., 2002).

Structure (SMILES)	body weight changes [1]	mortality rate [1]	neurological deficit score ([2]; day 5)	neurological deficit score ([2]; day 10)	corner test outcome [3]	neurological deficit score ([2]; day 1 post-reperfusion)	neurological deficit score ([2]; day 14 post-reperfusion)
CCCCNc1cc(C(=O)O)cc(S(N)(=O)=O)c1Oc1ccccc1 [BMT, 3-(butylamino)-4-phenoxy-5-sulfamoylbenzoic acid, reference compound]	no differences in the body weight changes	~16.7%	3.8±0.4	2.5±0.5	exhibited neuroprotective effects	–	–
CCCCNc1cc(CNCC(F)(F)F)cc(S(N)(=O)=O)c1Oc1ccccc1 [STS66, 3-(Butylamino)-2-phenoxy-5-[(2,2,2-trifluoroethylamino)methyl]benzenesulfonamide]	no differences in the body weight changes	none of the STS66-treated mice died	–	–	definite superior effects at every testing day	4.0±0.0	1.2±0.4
